Experimental data: patent US20080292584A1 (priority 2005, published 2008)
Where “and” joins values, the source holds several entries; their conditions need not be identical. Equal values may be shown once.

How the values were obtained:
CYP2C8 = biological target: T1, CYP2C8 (Homo sapiens, UniProt P10632); experiment: Chemical inhibition of metaxalone turnover in human liver microsomes, CYP2C8 inhibitor quercetin; details: 1 mg/mL HLM, 60 min, with quercetin, single replicates
T1 sequence (P10632 1-490): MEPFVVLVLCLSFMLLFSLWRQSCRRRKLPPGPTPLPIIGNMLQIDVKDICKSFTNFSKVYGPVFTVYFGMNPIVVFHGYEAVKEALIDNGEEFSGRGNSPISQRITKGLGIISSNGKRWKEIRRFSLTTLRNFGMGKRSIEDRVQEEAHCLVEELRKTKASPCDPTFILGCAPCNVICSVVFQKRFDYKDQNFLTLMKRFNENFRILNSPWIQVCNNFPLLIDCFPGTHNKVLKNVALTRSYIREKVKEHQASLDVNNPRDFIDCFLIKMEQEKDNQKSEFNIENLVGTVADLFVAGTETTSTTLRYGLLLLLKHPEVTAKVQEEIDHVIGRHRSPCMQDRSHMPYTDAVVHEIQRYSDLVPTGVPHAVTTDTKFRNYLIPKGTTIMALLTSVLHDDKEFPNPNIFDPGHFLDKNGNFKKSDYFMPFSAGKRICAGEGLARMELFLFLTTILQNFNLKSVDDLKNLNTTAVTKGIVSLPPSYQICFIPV
Experimental: Human liver microsomes pooled from 15 individuals (male and female) (Pool HMMC-PL020; CellzDirect, Inc., In Vitro Products and Services Division) were used in some experiments of this study.
% Turnover=100−{[TA(final)]/[mean of TA(0 min)]}×100,
% Inhibition of Turnover=100{1−([TA(0 min)]−[TA(final-inhibitor)])/([TA(0 min)]−[TA(final-no inhibitor)])}.
The inhibitors or vehicle control were incubated with the pooled human liver microsomes (1 mg/mL) and NADPH (1 mM) in 0.1 M phosphate buffer, pH 7.4. […] Incubations were conducted in triplicate and terminated by addition of organic solvent. Samples were extracted and analyzed by LC-MS/MS as described above.

CYP2B6 = experiment: Induction/inhibition of CYP2B6 activity in cryopreserved human hepatocytes (S-mephenytoin); details: human; for Nirvanol formation Adjusted Mean ± SD: 48 h
Source text: Hepatocytes from three human donors were obtained from a cryopreserved hepatocyte bank (In Vitro Technologies, Inc., USA). After thawing, viable hepatocytes were transferred to collagen-coated 48-well plates for attachment in plating medium (DMEM stock (Dulbecco's modified Eagle's medium, supplemented with bovine serum albumin, fructose, N-(2-hydroxyethyl)piperazine-N′-(2-ethanesulfonate) (HEPES), and sodium bicarbonate), supplemented with antibiotics, bovine serum, hydrocortisone, insulin and minimum essential medium (MEM) nonessential amino acids). After attachment to the collagen matrix, plating medium was replaced with sandwich medium (plating medium supplemented with VITROGEN) and incubated until use.
The supplemented KHB was replaced with 150 μL supplemented KHB containing the appropriate isoform-selective substrate and incubated for 4 hrs prior to termination by adding 150 μL ice-cold methanol, except for the CYP2C8 incubations which were terminated by adding 150 μL acetonitrile.
All substrates were dissolved in acetonitrile.
Replicate trials and controls were performed. […] Additionally, reference control samples were included to evaluate inducibility of CYP2B6, CYP2C9, and CYP2C19 in the test system.
Mean specific activity values with associated p-values≦0.05 were deemed to be statistically significant.

CYP1A2 = biological target: T2, CYP1A2 (Homo sapiens, UniProt P05177); experiment: Inhibition of CYP1A2 activity in pooled human liver microsomes (phenacetin 50 μM to acetaminophen); type: in vitro ADME
T2 sequence (P05177 1-516): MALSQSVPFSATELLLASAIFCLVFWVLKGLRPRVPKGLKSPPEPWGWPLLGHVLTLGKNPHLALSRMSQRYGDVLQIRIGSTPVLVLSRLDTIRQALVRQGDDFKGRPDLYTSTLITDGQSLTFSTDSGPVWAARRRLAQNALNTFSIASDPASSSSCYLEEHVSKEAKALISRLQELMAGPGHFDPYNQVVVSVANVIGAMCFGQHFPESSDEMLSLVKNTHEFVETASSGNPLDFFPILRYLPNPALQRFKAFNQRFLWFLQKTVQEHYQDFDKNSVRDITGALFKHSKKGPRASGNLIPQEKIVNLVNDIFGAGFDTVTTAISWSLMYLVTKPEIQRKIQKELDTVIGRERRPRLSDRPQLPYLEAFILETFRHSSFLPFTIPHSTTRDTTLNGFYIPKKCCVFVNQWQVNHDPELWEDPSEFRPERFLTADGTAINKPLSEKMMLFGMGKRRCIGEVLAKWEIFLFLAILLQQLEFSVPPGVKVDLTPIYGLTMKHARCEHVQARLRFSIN
Experimental: Microsomes were prepared by differential centrifugation of liver homogenates pooled from at least ten human donors.
After a 5 minute preincubation, NADPH regenerating system (NRS) was added to initiate the reaction. CYP2A6 and CYP3A4 incubations were for 10 minutes. All other incubations were for 30 minutes.
Incubations for CYP2C8 were terminated by adding 1.0 mL of ACN, while all other incubations were terminated by adding 1.0 mL of methanol.
Vehicle control experiments were performed to establish a baseline value for enzyme activity. […] Four replicates were performed.
Two replicates were performed. […] No interference was detected in any of the metabolite assay methods used.

human CYP1A2 = biological target: T3, human CYP1A2 (Homo sapiens, UniProt P05177); experiment: Metabolism of metaxalone by expressed recombinant human CYP1A2 at 5 or 20 pmol (Example 4, LC-MS/MS); details: for percent turnover / % Turnover Mean / [metaxalone] Mean / % Turnover % / [metaxalone]: 60 min; for % Turnover % / [metaxalone]: single replicates, listed as Metaxalone
T3 sequence (P05177 2-516 limits assumed): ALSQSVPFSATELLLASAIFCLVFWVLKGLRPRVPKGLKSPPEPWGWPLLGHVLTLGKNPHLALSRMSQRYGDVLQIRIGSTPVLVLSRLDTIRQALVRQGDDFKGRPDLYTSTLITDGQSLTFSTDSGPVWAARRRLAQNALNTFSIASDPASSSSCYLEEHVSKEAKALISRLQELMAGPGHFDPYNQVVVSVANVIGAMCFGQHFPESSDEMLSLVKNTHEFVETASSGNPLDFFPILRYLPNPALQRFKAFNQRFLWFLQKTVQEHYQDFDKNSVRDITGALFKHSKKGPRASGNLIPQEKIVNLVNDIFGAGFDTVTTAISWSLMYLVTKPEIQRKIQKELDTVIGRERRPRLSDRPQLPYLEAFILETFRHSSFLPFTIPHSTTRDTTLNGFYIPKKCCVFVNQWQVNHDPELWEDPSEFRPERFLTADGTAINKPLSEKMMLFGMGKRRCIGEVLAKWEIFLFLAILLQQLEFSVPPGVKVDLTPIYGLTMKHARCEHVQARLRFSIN

[1] = CYP isozyme 1A2, summary of studies
[2] = 0.75 μM metaxalone, 20 pmol cyp

## Cc1cc(C)cc(OCC2CNC(=O)O2)c1 (stereo not drawn) [metaxalone, 5-[(3,5-dimethylphenoxy)methyl]-2-oxazolidinone]
CYP2C8; 0.75 μM metaxalone
  % Turnover: 14.3%
  Conc.: 661 nM
CYP2C8; 7.5 μM metaxalone
  % Turnover: −1.8%
  % inhibition of turnover: 107%
CYP2B6
  Inducer/Inhibitor: 0
CYP2B6; 0.4 μM
  Nirvanol formation Adjusted Mean ± SD: 0.0340 ± 0.000883 µM
CYP2B6; 4 μM
  Nirvanol formation Adjusted Mean ± SD: 0.0305 ± 0.00272 µM
CYP1A2; 0.3-100 μM metaxalone, p≦0.05
  inhibition of CYP activity at a statistically significant level: inhibited
CYP1A2; [1]
  Inhibitor: +
CYP1A2; metaxalone 0.3 μM
  Percent of VC: 97.2%
  Specific Activity Individual: 28.6 pmol/min/mg protein and 27.2 pmol/min/mg protein
  Specific Activity Mean ± SD: 28.0 ± 0.715 pmol/min/mg protein
CYP1A2; metaxalone 1 μM
  Percent of VC: 92.3%
  Specific Activity Individual: 26.6 pmol/min/mg protein
  Specific Activity Mean ± SD: 26.6 ± 0.327 pmol/min/mg protein
CYP1A2; metaxalone 3 μM
  Percent of VC: 90.3%
  Specific Activity Individual: 26.5 pmol/min/mg protein and 25.1 pmol/min/mg protein and 26.4 pmol/min/mg protein
  Specific Activity Mean ± SD: 26.0 ± 0.785 pmol/min/mg protein
CYP1A2; metaxalone 30 μM
  Percent of VC: 89.8%
  Specific Activity Individual: 25.2 pmol/min/mg protein and 25.8 pmol/min/mg protein and 26.7 pmol/min/mg protein
  Specific Activity Mean ± SD: 25.9 ± 0.725 pmol/min/mg protein
CYP1A2; metaxalone 100 μM
  Percent of VC: 82.0%
  Specific Activity Individual: 23.7 pmol/min/mg protein and 23.6 pmol/min/mg protein (2×)
  Specific Activity Mean ± SD: 23.6 ± 0.0275 pmol/min/mg protein
Human CYP1A2; 0.75 μM metaxalone, 5 pmol CYP450
  percent turnover: 9.2%
Human CYP1A2; 0.75 μM metaxalone, 5 pmol cyp
  % Turnover Mean: 9.2%
  [metaxalone] Mean: 0.719 µM
  % Turnover %: 17.5% and 6.2% and 3.9%
  [metaxalone]: 0.653 µM and 0.742 µM and 0.761 µM
Human CYP1A2; 0.75 μM metaxalone, 20 pmol CYP450
  percent turnover: 34.8%
Human CYP1A2; [2]
  % Turnover Mean: 34.8%
  [metaxalone] Mean: 0.516 µM
  % Turnover %: 31.7% and 35.5% and 37.3%
  [metaxalone]: 0.540 µM and 0.511 µM and 0.496 µM
Human CYP1A2; 7.5 μM metaxalone, 5 pmol CYP450
  percent turnover: 10.0%
Human CYP1A2; 7.5 μM metaxalone, 5 pmol cyp
  % Turnover Mean: 10.0%
  [metaxalone] Mean: 7.60 µM
  % Turnover %: 14.3% and 5.7%
  [metaxalone]: 7.24 µM and 7.97 µM
Human CYP1A2; 7.5 μM metaxalone, 20 pmol CYP450
  percent turnover: 30.4%
Human CYP1A2; 7.5 μM metaxalone, 20 pmol cyp
  % Turnover Mean: 30.4%
  [metaxalone] Mean: 5.88 µM
  % Turnover %: 33.3% and 32.3% and 25.5%
  [metaxalone]: 5.63 µM and 5.72 µM and 6.29 µM
Human CYP1A2; [1]
  Substrate: +
